Test system: 996289-038-R-J1-PDC spheroid viability
Experiment: Anticancer human tumor 996289-038-R-J1-PDC patient-derived colon adenocarcinoma cell line growth inhibition [PI3K]
Settings: spheroids with HUVEC and MSC; for IC50: curve of first compound; for viability, T/C: stronger effect = lower value
Outline: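 Spheroid viability read-out. Co-cultures contained the tumor line plus HUVEC and human MSCs. Each agent was paired with a PI3K inhibitor (inavolisib, alpelisib, duvelisib, copanlisib) across half-log dilutions starting at clinical Cmax, or at 10 microM when Cmax was unknown.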

[1] = second compound 0.00316 µM, first compound 0.0316 µM
[2] = second compound 0.00316 µM, first compound 0.1 µM
[3] = second compound 0.00316 µM, first compound 0.316 µM
[4] = second compound 0.00316 µM, first compound 1 µM
[5] = second compound 0.00316 µM, first compound 3.16 µM
[6] = second compound 0.00316 µM, first compound 10 µM
[7] = second compound 0.01 µM, first compound 0.0316 µM
[8] = second compound 0.01 µM, first compound 0.1 µM
[9] = second compound 0.01 µM, first compound 0.316 µM
[10] = second compound 0.01 µM, first compound 1 µM
[11] = second compound 0.01 µM, first compound 3.16 µM
[12] = second compound 0.01 µM, first compound 10 µM
[13] = second compound 0.0316 µM, first compound 0.0316 µM
[14] = second compound 0.0316 µM, first compound 0.1 µM
[15] = second compound 0.0316 µM, first compound 0.316 µM
[16] = second compound 0.0316 µM, first compound 1 µM
[17] = second compound 0.0316 µM, first compound 3.16 µM
[18] = second compound 0.0316 µM, first compound 10 µM
[19] = second compound 0.1 µM, first compound 0.0316 µM
[20] = second compound 0.1 µM, first compound 0.1 µM
[21] = second compound 0.1 µM, first compound 0.316 µM
[22] = second compound 0.1 µM, first compound 1 µM
[23] = second compound 0.1 µM, first compound 3.16 µM
[24] = second compound 0.1 µM, first compound 10 µM
[25] = second compound 0.316 µM, first compound 0.0316 µM
[26] = second compound 0.316 µM, first compound 0.1 µM
[27] = second compound 0.316 µM, first compound 0.316 µM
[28] = second compound 0.316 µM, first compound 1 µM
[29] = second compound 0.316 µM, first compound 3.16 µM
[30] = second compound 0.316 µM, first compound 10 µM
[31] = second compound 1 µM, first compound 0.0316 µM
[32] = second compound 1 µM, first compound 0.1 µM
[33] = second compound 1 µM, first compound 0.316 µM
[34] = second compound 1 µM, first compound 1 µM
[35] = second compound 1 µM, first compound 3.16 µM
[36] = second compound 1 µM, first compound 10 µM
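Also: spheroids exposed to compounds for seven days before viability read.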
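For viability, T/C in this document: luminescence used as a proxy for viable cell amount; percent viability relative to DMSO vehicle control as 100%.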

`C=CC(=O)N1CCN(c2nc(=O)n(-c3c(C)ccnc3C(C)C)c3nc(-c4c(O)cccc4F)c(F)cc23)C(C)C1` (stereo unspecified) + COc1c(OCCCN2CCOCC2)ccc2c3n(c(=NC(=O)c4cnc(N)nc4)nc12)CCN3 showed an IC50 (second compound 0.00316 µM) of over 10000 nM, an IC50 (second compound 0.01 µM) of over 10000 nM and an IC50 (second compound 0.0316 µM) of over 10000 nM. For the same compound, the IC50 (second compound 0.1 µM) was over 10000 nM, the IC50 (second compound 0.316 µM) was under 31.6 nM and the IC50 (second compound 1 µM) was under 31.6 nM. It also gave a viability, T/C [1] of 99.8%, a viability, T/C [2] of 99.1% and a viability, T/C [3] of 118%. It also gave a viability, T/C [4] of 129%, a viability, T/C [5] of 137% and a viability, T/C [6] of 104%. For the same compound, the viability, T/C [7] was 99.8%, the viability, T/C [8] was 92.7% and the viability, T/C [9] was 108%. For the same compound, the viability, T/C [10] was 99.9%, the viability, T/C [11] was 106% and the viability, T/C [12] was 109%. It also gave a viability, T/C [13] of 82.6%, a viability, T/C [14] of 88.3% and a viability, T/C [15] of 85.4%. The viability, T/C [16] was 81.5%, the viability, T/C [17] was 90.7% and the viability, T/C [18] was 85.6%. The viability, T/C [19] was 60.7%, the viability, T/C [20] was 52.7% and the viability, T/C [21] was 62.5%. It also gave a viability, T/C [22] of 74.3%, a viability, T/C [23] of 70.8% and a viability, T/C [24] of 71.9%. For the same compound, the viability, T/C [25] was 37.7%, the viability, T/C [26] was 42.5% and the viability, T/C [27] was 38.2%. For the same compound, the viability, T/C [28] was 42%, the viability, T/C [29] was 48.2% and the viability, T/C [30] was 40.5%. For the same compound, the viability, T/C [31] was 21%, the viability, T/C [32] was 22.6% and the viability, T/C [33] was 20.4%. For the same compound, the viability, T/C [34] was 22%, the viability, T/C [35] was 23.3% and the viability, T/C [36] was 20.7%.

Work on `Cn1ncc(Cl)c1-c1cc(C(=O)NC(CN)Cc2cccc(F)c2)sc1Cl` (stereo unspecified) + COc1c(OCCCN2CCOCC2)ccc2c3n(c(=NC(=O)c4cnc(N)nc4)nc12)CCN3 yielded an IC50 (second compound 0.00316 µM) of 5060 nM, an IC50 (second compound 0.01 µM) of 2840 nM and an IC50 (second compound 0.0316 µM) of 1730 nM. The IC50 (second compound 0.1 µM) was 212 nM, the IC50 (second compound 0.316 µM) was under 31.6 nM and the IC50 (second compound 1 µM) was under 31.6 nM. It also gave a viability, T/C [1] of 99.4%, a viability, T/C [2] of 93.6% and a viability, T/C [3] of 82%. The viability, T/C [4] was 73.2%, the viability, T/C [5] was 56.8% and the viability, T/C [6] was 39.7%. It also gave a viability, T/C [7] of 92.4%, a viability, T/C [8] of 87.1% and a viability, T/C [9] of 74.2%. The viability, T/C [10] was 59.9%, the viability, T/C [11] was 54.8% and the viability, T/C [12] was 26.7%. For the same compound, the viability, T/C [13] was 81.6%, the viability, T/C [14] was 66.5% and the viability, T/C [15] was 70.9%. The viability, T/C [16] was 62%, the viability, T/C [17] was 37.6% and the viability, T/C [18] was 23.7%. For the same compound, the viability, T/C [19] was 60.3%, the viability, T/C [20] was 59.4% and the viability, T/C [21] was 44.6%. It also gave a viability, T/C [22] of 37.3%, a viability, T/C [23] of 31.3% and a viability, T/C [24] of 20.5%. The viability, T/C [25] was 34.8%, the viability, T/C [26] was 33% and the viability, T/C [27] was 32.8%. For the same compound, the viability, T/C [28] was 32.3%, the viability, T/C [29] was 30.5% and the viability, T/C [30] was 15.1%. For the same compound, the viability, T/C [31] was 18.3%, the viability, T/C [32] was 19.7% and the viability, T/C [33] was 17%. The viability, T/C [34] was 23.1%, the viability, T/C [35] was 20.1% and the viability, T/C [36] was 11%.

In the case of `Cn1nccc1Nc1nccc(-c2ccn(C(CO)c3ccc(Cl)c(F)c3)c(=O)c2)n1` (stereo unspecified) + COc1c(OCCCN2CCOCC2)ccc2c3n(c(=NC(=O)c4cnc(N)nc4)nc12)CCN3, the IC50 (second compound 0.00316 µM) is reported as over 10000 nM, the IC50 (second compound 0.01 µM) is reported as over 10000 nM and the IC50 (second compound 0.0316 µM) is reported as 5910 nM. The IC50 (second compound 0.1 µM) was 2560 nM, the IC50 (second compound 0.316 µM) was under 31.6 nM and the IC50 (second compound 1 µM) was under 31.6 nM. It also gave a viability, T/C [1] of 94.8%, a viability, T/C [2] of 82.6% and a viability, T/C [3] of 104%. It also gave a viability, T/C [4] of 83.6%, a viability, T/C [5] of 86.4% and a viability, T/C [6] of 55.6%. For the same compound, the viability, T/C [7] was 95.6%, the viability, T/C [8] was 87.5% and the viability, T/C [9] was 91.2%. For the same compound, the viability, T/C [10] was 93.6%, the viability, T/C [11] was 73.3% and the viability, T/C [12] was 56.3%. The viability, T/C [13] was 100%, the viability, T/C [14] was 80.1% and the viability, T/C [15] was 80%. It also gave a viability, T/C [16] of 76%, a viability, T/C [17] of 58% and a viability, T/C [18] of 41.2%. The viability, T/C [19] was 69.5%, the viability, T/C [20] was 62.8% and the viability, T/C [21] was 64.3%. The viability, T/C [22] was 54%, the viability, T/C [23] was 51.9% and the viability, T/C [24] was 22.4%. It also gave a viability, T/C [25] of 44.9%, a viability, T/C [26] of 34.7% and a viability, T/C [27] of 35%. It also gave a viability, T/C [28] of 36.4%, a viability, T/C [29] of 27.9% and a viability, T/C [30] of 18.5%. For the same compound, the viability, T/C [31] was 18.8%, the viability, T/C [32] was 20.6% and the viability, T/C [33] was 24%. It also gave a viability, T/C [34] of 17.7%, a viability, T/C [35] of 15% and a viability, T/C [36] of 9.77%.
